Reference: patent US10493254B2, “Permeant delivery system and methods for use thereof” (priority 2008, dated 2019)

Experiment: Exenatide delivery from liquid patch with permeability enhancer through microporated abdomen
Settings: hairless rat abdomen microporated; patch with 20 OuL solution of exenatide (10.5 mg/mL) and agent (3% w/v); fresh solution every four hours

With O=C([O-])CC(O)(CC(=O)[O-])C(=O)O.[Na+].[Na+] [disodium citrate] the “exenatide levels over 24 hours” value was “roughly steady levels”.
